Where no end group is shown, it is not given here.
Legend:
[1] = test system: H9C2 cells; test: Fluorescence activated cell sorting of H9C2 cells after 30 min incubation with 10 uM peptide (median Cy5.5); assay type: cell-based, rat; details: for Corrected Median Cy5.5 / Raw Median Cy5.5: H9C2 cells, 30 min incubation, 10 uM peptide, single replicates; for Corrected Median Cy5.5: corrected for peptide fluorescence; for Average Correction: average of corrected median Cy5.5, H9C2 cells, FIG. 1C
Experimental: (§1) Variants of SEQ ID NO: 1 in which every amino acid was systematically mutated to alanine were synthesized in the University of Pittsburgh Peptide Synthesis Facility. Each variant was conjugated to the Cyanine5.5 fluorescent dye (Cy5.5). The rat cardiomyocyte cell line H9C2 (ATCC, catalogue #: CRL-1446) was incubated for 30 minutes at 37° C. with Dimethyl sulfoxide (DMSO) as a control, or the alanine peptide variants. Cells were then washed 3 times with PBS, trypsinized and resuspended, stained for live/dead cells, and then FACS sorted for Cy5.5 positive cells.

[2] = test system: H9C2 cells; test: Alanine scan: percentage of Cy5.5 positive H9C2 cells by FACS; assay type: cell-based, rat; details: percentage of Cy5.5 positive H9C2 cells normalized to non-mutated peptide (SEQ ID NO: 1); Cy5.5-conjugated peptides, 30 minutes at 37° C.
Experimental: as §1
The percentage of Cy5.5 positive H9C2 cells, normalized to the non-mutated peptide (SEQ ID NO: 1), for each peptide variant is summarized in Table 2 below.

APAHLSSQYSRT (also: Cy5.5 conjugate, site not given here) [W3A, alanine variant of CTP, Cy5.5 conjugated]
Corrected Median Cy5.5 ([1]; listed as W3A_001): 5369.7 | Corrected Median Cy5.5 ([1]; listed as W3A_002): 5369.7 | Corrected Median Cy5.5 ([1]; listed as W3A_003): 5258.1 | Raw Median Cy5.5 ([1]; listed as W3A_001): 4862 | Raw Median Cy5.5 ([1]; listed as W3A_002): 4862 | Raw Median Cy5.5 ([1]; listed as W3A_003): 4761 | Average Correction [1]: 5332.5 | % transduction of H9C2 Cells [2]: 75.81%

APWALSSQYSRT (also: Cy5.5 conjugate, site not given here) [H4A, alanine variant of CTP, Cy5.5 conjugated]
Corrected Median Cy5.5 ([1]; listed as H4A_001): 7666.1 | Corrected Median Cy5.5 ([1]; listed as H4A_002): 8011.3 | Corrected Median Cy5.5 ([1]; listed as H4A_003): 6934.0 | Raw Median Cy5.5 ([1]; listed as H4A_001): 7173 | Raw Median Cy5.5 ([1]; listed as H4A_002): 7496 | Raw Median Cy5.5 ([1]; listed as H4A_003): 6488 | Average Correction [1]: 7537.1 | % transduction of H9C2 Cells [2]: 55.05%

APWHASSQYSRT (also: Cy5.5 conjugate, site not given here) [L5A, alanine variant of CTP, Cy5.5 conjugated]
Corrected Median Cy5.5 ([1]; listed as L5A_001): 5077.5 | Corrected Median Cy5.5 ([1]; listed as L5A_002): 5522.0 | Corrected Median Cy5.5 ([1]; listed as L5A_003): 5370.0 | Raw Median Cy5.5 ([1]; listed as L5A_001): 3107 | Raw Median Cy5.5 ([1]; listed as L5A_002): 3379 | Raw Median Cy5.5 ([1]; listed as L5A_003): 3286 | Average Correction [1]: 5323.2 | % transduction of H9C2 Cells [2]: 87.81%

APWHLASQYSRT (also: Cy5.5 conjugate, site not given here) [S6A, alanine variant of CTP, Cy5.5 conjugated]
Corrected Median Cy5.5 ([1]; listed as S6A_001): 17793.0 | Corrected Median Cy5.5 ([1]; listed as S6A_002): 18393.5 | Corrected Median Cy5.5 ([1]; listed as S6A_003): 20420.3 | Raw Median Cy5.5 ([1]; listed as S6A_001): 22342 | Raw Median Cy5.5 ([1]; listed as S6A_002): 23096 | Raw Median Cy5.5 ([1]; listed as S6A_003): 25641 | Average Correction [1]: 18868.9 | % transduction of H9C2 Cells [2]: 107.21%

APWHLSAQYSRT (also: Cy5.5 conjugate, site not given here) [S7A, alanine variant of CTP, Cy5.5 conjugated]
Corrected Median Cy5.5 ([1]; listed as S7A_001): 21208.1 | Corrected Median Cy5.5 ([1]; listed as S7A_002): 23475.6 | Corrected Median Cy5.5 ([1]; listed as S7A_003): 23755.1 | Raw Median Cy5.5 ([1]; listed as S7A_001): 20184 | Raw Median Cy5.5 ([1]; listed as S7A_002): 22342 | Raw Median Cy5.5 ([1]; listed as S7A_003): 22608 | Average Correction [1]: 22813.0 | % transduction of H9C2 Cells [2]: 54.32%

APWHLSSAYSRT (also: Cy5.5 conjugate, site not given here) [Q8A, alanine variant of CTP, Cy5.5 conjugated]
Corrected Median Cy5.5 ([1]; listed as Q8A_001): 9725.5 | Corrected Median Cy5.5 ([1]; listed as Q8A_002): 9339.0 | Corrected Median Cy5.5 ([1]; listed as Q8A_003): 9049.4 | Raw Median Cy5.5 ([1]; listed as Q8A_001): 10041 | Raw Median Cy5.5 ([1]; listed as Q8A_002): 9642 | Raw Median Cy5.5 ([1]; listed as Q8A_003): 9343 | Average Correction [1]: 9371.3 | % transduction of H9C2 Cells [2]: 67.35%

APWHLSSQASRT (also: Cy5.5 conjugate, site not given here) [Y9A, alanine variant of CTP, Cy5.5 conjugated]
Corrected Median Cy5.5 ([1]; listed as Y9A_001): 5365.7 | Corrected Median Cy5.5 ([1]; listed as Y9A_002): 5445.9 | Corrected Median Cy5.5 ([1]; listed as Y9A_003): 5586.0 | Raw Median Cy5.5 ([1]; listed as Y9A_001): 5018 | Raw Median Cy5.5 ([1]; listed as Y9A_002): 5093 | Raw Median Cy5.5 ([1]; listed as Y9A_003): 5224 | Average Correction [1]: 5465.9 | % transduction of H9C2 Cells [2]: 107%

APWHLSSQYART (also: Cy5.5 conjugate, site not given here) [S10A, alanine variant of CTP, Cy5.5 conjugated]
Corrected Median Cy5.5 ([1]; listed as S10A_001): 3707.6 | Corrected Median Cy5.5 ([1]; listed as S10A_002): 3658.1 | Corrected Median Cy5.5 ([1]; listed as S10A_003): 3959.6 | Raw Median Cy5.5 ([1]; listed as S10A_001): 1722 | Raw Median Cy5.5 ([1]; listed as S10A_002): 1699 | Raw Median Cy5.5 ([1]; listed as S10A_003): 1839 | Average Correction [1]: 3775.1 | % transduction of H9C2 Cells [2]: 30.61%

Reference: patent US12643924B2, “Cardiac-specific targeting-peptide (CTP), compositions, and uses thereof” (University of Pittsburgh—Of the Commonwealth System of …, priority 2018, dated 2026)
